From patent publication US4125615A, “2-[4-(P-Aminobenzyl)-1-piperazinyl]-8-ethyl-5,8-dihydro-5-oxopyrido[2,3-d]p y” (priority 1976, dated 1978)
In brackets after ≈: the same amount, converted by molar mass. Read-outs that look alike come from different tables or passages of the source.

How the values were obtained:
[1] = test system: Staphylococcus aureus Terajima; experiment: In vitro antibacterial activity (MIC), Staphylococcus aureus Terajima; assay type: cell-based
Experimental: (§1) (1) In vitro antibacterial activity against 9 strains of bacteria (Gram-positive bacteria: 4 strains, Gram-negative bacteria: 5 strains)
(§2) The test compounds were dissolved in distilled water at a concentration of 1 mg/ml with equimolar NaOH. Then graded concentrations (300, 100, 30, 10, 3 μg/ml, etc.) were made by serial dilution with distilled water. Each solution of test compound (0.5 ml) was pipetted into 4.5 ml of medium in a tube. The media used were Brain Heart Infusion Broth, pH 7.4, for Streptococcus and nutrient broth [10 g of Polypepton, 10 g of Meat Extract, and 2.5 g of NaCl in 1 liter of distilled water], pH 7.0, for the other bacteria. One drop of a bacterial suspension freshly cultured and diluted so as to contain 10 to 100 minimal growing units in the medium was inoculated into the tube. The tubes were incubated at 37° C. for 48 hours. The minimal inhibitor concentration (MIC) was defined as the lowest concentration in which no visible growth of the bacteria was detected.

[2] = test system: Staphylococcus aureus No. 10; experiment: In vitro antibacterial activity (MIC), Staphylococcus aureus No. 10; assay type: cell-based
Experimental: as §1, §2

[3] = test system: Staphylococcus aureus No. 50774; experiment: In vitro antibacterial activity (MIC), Staphylococcus aureus No. 50774; assay type: cell-based
Experimental: as §1, §2

[4] = test system: Streptococcus pyogenes A65; experiment: In vitro antibacterial activity (MIC), Streptococcus pyogenes A65; assay type: cell-based; settings: Brain Heart Infusion Broth pH 7.4, 37° C., 48 hours
Experimental: as §1, §2

Escherichia coli K-12 = experiment: In vitro antibacterial activity (MIC), Escherichia coli K-12; assay type: cell-based
Experimental: as §1, §2

Escherichia coli P-5101 [5] = experiment: In vitro antibacterial activity (MIC), Escherichia coli P-5101; assay type: cell-based
Experimental: as §1, §2

Proteus vulgaris OX-19 = experiment: In vitro antibacterial activity (MIC), Proteus vulgaris OX-19; assay type: cell-based
Experimental: as §1, §2

Shigella sonnei EW33 = experiment: In vitro antibacterial activity (MIC), Shigella sonnei EW33; assay type: cell-based; settings: nutrient broth pH 7.0, 37° C., 48 hours
Experimental: as §1, §2

[6] = test system: Salmonella typhimurium S-9; experiment: In vitro antibacterial activity (MIC), Salmonella typhimurium S-9; assay type: cell-based; settings: Salmonella enterica
Experimental: as §1, §2

[7] = test system: Staphylococcus aureus No. 50774; experiment: In vivo efficacy against the intravenous infection of mice by Staphylococcus aureus No. 50774; settings: NO.50774, 336 h, male ddY mice, iv infection 6 LD50, oral, twice (5 minutes and 6 hours after infection), survival after 2 weeks
Experimental: (2) in vivo efficacy against the intravenous infection of mice by Staphylococcus aureus No. 50774
(§3) Each group of 8 male mice (ddY strain, approximately 20 g) was intravenously infected with 6 LD50 of Staphylococcus aureus No. 50774 in 0.85% saline. The test compounds were each suspended in 0.2% carboxymethyl cellulose and administered orally in graded doses (200, 100, 50, 25, 12.5, 6.3, 3.1 mg/kg, etc.) to the infected mice twice, about 5 minutes and 6 hours after infection. Survival rates were determined after 2 weeks and the ED50 was calculated in accordance with Probit method.

[8] = test system: Streptococcus pyogenes A65; experiment: In vivo efficacy against the intraperitoneal infection of mice by Streptococcus pyogenes A65; settings: A65, 336 h, male ddY mice, ip infection 4 LD50, oral, twice (5 minutes and 6 hours after infection), survival after 2 weeks
Experimental: as §3
(3) In vivo efficacy against the intraperitoneal infection of mice by Streptococcus pyogenes A65
Each group of 8 male mice (ddY strain, approximately 20 g) was intraperitoneally infected with 4 LD50 of Streptococcus pyogenes A65 suspended in Brain Heart Infusion Broth. The subsequent procedures were the same as those described in (2).

Staphylococcus aureus [9] = settings: compounds of U.S. Pat. Nos. 3,887,557 and 3,950,338; cited from earlier work
Staphylococcus aureus [10] = settings: compounds of U.S. Pat. Nos. 3,887,557 and 3,950,338; cited from earlier work; remark: listed apart in the source
Escherichia coli P-5101 [11] = experiment: In vivo efficacy against the intraperitoneal infection of mice by Escherichia coli p-5101; settings: P5101, 336 h, male ddY mice, ip infection 9 LD50, 4% gastric mucin, oral, twice (5 minutes and 6 hours after infection), survival after 2 weeks
Experimental: as §3
(4) in vivo efficacy against the intraperitoneal infection of mice by Escherichia coli p-5101
Each group of 8 male mice (ddY strain, approximately 20 g) was intraperitoneally infected with 9 LD50 of Escherichia coli p-5101 suspended in Trypto-Soy Broth supplemented with 4% gastric mucin. The subsequent procedures were the same as those described in (2).

in vivo = settings: mouse, in vivo, female ddY mice, Behrens-Kaerber method
Excerpt: (§4) (5) acute toxicity in mice
(§5) Female ddY strain mice, weighing 25 to 33 g, were used. Test compounds were suspended in 0.2% carboxymethyl cellulose for oral administration, and dissolved in NaOH solution (final pH 8.8-9.2) for intravenous administration.

mice = experiment: in vivo
Excerpt: as §4, §5

[12] = test system: Gram-positive and Gram-negative bacteria; experiment: Antibacterial activity against Gram-positive and Gram-negative bacteria (summary statement); settings: in words
Staphylococcus aureus [13] = settings: Antimicrob. Agents Chemother.; cited from earlier work
[14] = Staphylococcus aureus Terajima, nutrient broth pH 7.0, 37° C., 48 hours, read-out: MIC
[15] = Staphylococcus aureus No. 10, nutrient broth pH 7.0, 37° C., 48 hours, read-out: MIC
[16] = Staphylococcus aureus, NO.50774, 48 h, pH 7
[17] = Escherichia coli, K12, 48 h, pH 7
[18] = P5101, Escherichia coli P-5101, nutrient broth pH 7.0, 37° C., 48 hours, read-out: MIC
[19] = Proteus vulgaris, OX19, 48 h, pH 7
[20] = OX19, Proteus vulgaris OX-19, nutrient broth pH 7.0, 37° C., 48 hours, read-out: MIC
[21] = K12, Escherichia coli K-12, nutrient broth pH 7.0, 37° C., 48 hours, read-out: MIC
[22] = Escherichia coli, P5101, 48 h, pH 7
[23] = oral, 7 days, read-out: LD50 (oral administration)
[24] = Staphylococcus aureus No. 50774, nutrient broth pH 7.0, 37° C., 48 hours, read-out: MIC

CCn1cc(C(=O)O)c(=O)c2cnc(N3CCN(Cc4ccccc4)CC3)nc21 [Compound 1, 2-(4-Benzyl-1-piperazinyl)-8-ethyl-5,8-dihydro-5-oxopyrido[2,3-d]-pyrimidine-6-carboxylic acid]
MIC [1, 14]: 10 µg/mL (≈ 25.4 µM)
MIC [2, 15]: 10 µg/mL (≈ 25.4 µM)
MIC [3, 16]: 3 µg/mL (≈ 7.62 µM)
MIC [4]: 100 µg/mL (≈ 254 µM)
MIC (Escherichia coli K-12; [17]): 3 µg/mL (≈ 7.62 µM)
MIC (Escherichia coli P-5101 [5]; [18]): 10 µg/mL (≈ 25.4 µM)
MIC (Proteus vulgaris OX-19; [19]): 3 µg/mL (≈ 7.62 µM)
MIC (Shigella sonnei EW33): 3 µg/mL (≈ 7.62 µM)
MIC ([6]; TYPHIMURIUM, 48 h, pH 7): 3 µg/mL (≈ 7.62 µM)
ED50 [7]: ~50 mg/kg
ED50 [8]: > 100 mg/kg
in vitro activities against Staphylococcus aureus (Staphylococcus aureus [9]): relatively strong
in vivo activities against Staphylococcus aureus (Staphylococcus aureus [10]): weak

CCn1cc(C(=O)O)c(=O)c2cnc(N3CCN(Cc4ccc(OC)cc4)CC3)nc21 [Compound 2, 2-[4-(p-Methoxybenzyl)-1-piperazinyl]-8-ethyl-5,8-dihydro-5-oxopyrido[2,3-d]pyrimidine-6-carboxylic acid]
MIC [1, 14]: 10 µg/mL (≈ 23.6 µM)
MIC [2, 15]: 10 µg/mL (≈ 23.6 µM)
MIC [3, 16]: 3 µg/mL (≈ 7.08 µM)
MIC [4]: 100 µg/mL (≈ 236 µM)
MIC (Escherichia coli K-12; [17]): 3 µg/mL (≈ 7.08 µM)
MIC (Escherichia coli P-5101 [5]; [18]): 10 µg/mL (≈ 23.6 µM)
MIC (Proteus vulgaris OX-19; [20]): 10 µg/mL (≈ 23.6 µM)
MIC (Shigella sonnei EW33): 3 µg/mL (≈ 7.08 µM)
MIC ([6]; TYPHIMURIUM, 48 h, pH 7): 3 µg/mL (≈ 7.08 µM)
ED50 [7]: 54.5 mg/kg
ED50 [8]: > 100 mg/kg
in vitro activities against Staphylococcus aureus (Staphylococcus aureus [9]): relatively strong
in vivo activities against Staphylococcus aureus (Staphylococcus aureus [10]): weak

CCn1cc(C(=O)O)c(=O)c2cnc(N3CCN(Cc4ccc(Cl)cc4)CC3)nc21 [Compound 3, 2-[4-(p-Chlorobenzyl)-1-piperazinyl]-8-ethyl-5,8-dihydro-5-oxopyrido[2,3-d]pyrimidine-6-carboxylic acid]
MIC [1, 14]: 10 µg/mL (≈ 23.4 µM)
MIC [2, 15]: 10 µg/mL (≈ 23.4 µM)
MIC [3, 16]: 3 µg/mL (≈ 7.01 µM)
MIC [4]: 30 µg/mL (≈ 70.1 µM)
MIC (Escherichia coli K-12; [21]): 10 µg/mL (≈ 23.4 µM)
MIC (Escherichia coli P-5101 [5]; [18]): 30 µg/mL (≈ 70.1 µM)
MIC (Proteus vulgaris OX-19; [20]): 10 µg/mL (≈ 23.4 µM)
MIC (Shigella sonnei EW33): 3 µg/mL (≈ 7.01 µM)
MIC ([6]; Salmonella typhimurium S-9, nutrient broth pH 7.0, 37° C., 48 hours, read-out: MIC): 10 µg/mL (≈ 23.4 µM)
ED50 [7]: > 100 mg/kg
ED50 [8]: > 100 mg/kg
in vitro activities against Staphylococcus aureus (Staphylococcus aureus [9]): relatively strong
in vivo activities against Staphylococcus aureus (Staphylococcus aureus [10]): weak

CCn1cc(C(=O)O)c(=O)c2cnc(N3CCN(Cc4ccc(N)cc4)CC3)nc21 [Compound AT-1826, 2-[4-(p-Aminobenzyl)-1-piperazinyl]-8-ethyl-5,8-dihydro-5-oxopyrido[2,3-d]pyrimidine-6-carboxylic acid]
MIC ([1]; Staphylococcus aureus, 48 h, pH 7): 3 µg/mL (≈ 7.34 µM)
MIC ([2]; Staphylococcus aureus, NO.10, 48 h, pH 7): 3 µg/mL (≈ 7.34 µM)
MIC [3, 16]: 1 µg/mL (≈ 2.45 µM)
MIC [4]: 30 µg/mL (≈ 73.4 µM)
MIC (Escherichia coli K-12; [17]): 1 µg/mL (≈ 2.45 µM)
MIC (Escherichia coli P-5101 [5]; [22]): 3 µg/mL (≈ 7.34 µM)
MIC (Proteus vulgaris OX-19; [19]): 3 µg/mL (≈ 7.34 µM)
MIC (Shigella sonnei EW33): 1 µg/mL (≈ 2.45 µM)
MIC ([6]; TYPHIMURIUM, 48 h, pH 7): 3 µg/mL (≈ 7.34 µM)
ED50 [7]: 7.2 mg/kg
ED50 [8]: 47.7 mg/kg
ED50 (Escherichia coli P-5101 [11]): 35.6 mg/kg
LD50 at 168 h (in vivo; iv, NaOH solution final pH 8.8-9.2, 7 days, read-out: LD50 (intravenous administration)): 354 mg/kg
LD50 at 168 h (in vivo; [23]): > 2000 mg/kg
toxicity (mice; in words): low toxicity
antibacterial activities against Gram-positive and Gram-negative bacteria [12]: excellent antibacterial activities

CCn1cc(C(=O)O)c(=O)c2cnc(N3CCCC3)nc21 [Compound PA, 2-pyrrolidino-8-ethyl-5,8-dihydro-5-oxopyrido [2,3-d]pyrimidine-6-carboxylic acid]
MIC [1, 14]: 10 µg/mL (≈ 34.7 µM)
MIC [2, 15]: 10 µg/mL (≈ 34.7 µM)
MIC [3, 24]: 10 µg/mL (≈ 34.7 µM)
MIC [4]: 300 µg/mL (≈ 1040 µM)
MIC (Escherichia coli K-12; [21]): 1 µg/mL (≈ 3.47 µM)
MIC (Escherichia coli P-5101 [5]; [18]): 10 µg/mL (≈ 34.7 µM)
MIC (Proteus vulgaris OX-19; [20]): 1 µg/mL (≈ 3.47 µM)
MIC (Shigella sonnei EW33): 3 µg/mL (≈ 10.4 µM)
MIC ([6]; TYPHIMURIUM, 48 h, pH 7): 3 µg/mL (≈ 10.4 µM)
ED50 [7]: > 200 mg/kg
ED50 [8]: > 100 mg/kg
ED50 (Escherichia coli P-5101 [11]): 36.6 mg/kg
LD50 at 168 h (in vivo; [23]): > 2000 mg/kg
LD50 (intravenous administration) (mice; female ddY mice, iv, NaOH solution final pH 8.8-9.2, 7 days, Behrens-Kaerber method): 268 mg/kg
effect on systemic infection by Staphylococcus aureus (Staphylococcus aureus [13]): only extremely weak effect

CCn1cc(C(=O)O)c(=O)c2cnc(N3CCNCC3)nc21 [Compound PPA, 2-(1-piperazinyl)-8-ethyl-5,8-dihydro-5-oxopyrido [2,3-d]pyrimidine-6-carboxylic acid]
MIC [1, 14]: 30 µg/mL (≈ 98.9 µM)
MIC [2, 15]: 10 µg/mL (≈ 33 µM)
MIC [3, 24]: 10 µg/mL (≈ 33 µM)
MIC [4]: 100 µg/mL (≈ 330 µM)
MIC (Escherichia coli K-12; [17]): 1 µg/mL (≈ 3.3 µM)
MIC (Escherichia coli P-5101 [5]; [22]): 1 µg/mL (≈ 3.3 µM)
MIC (Proteus vulgaris OX-19; [19]): 3 µg/mL (≈ 9.89 µM)
MIC (Shigella sonnei EW33): 1 µg/mL (≈ 3.3 µM)
MIC ([6]; TYPHIMURIUM, 48 h, pH 7): 1 µg/mL (≈ 3.3 µM)
ED50 [7]: 238 mg/kg
ED50 [8]: > 100 mg/kg
ED50 (Escherichia coli P-5101 [11]): 21.2 mg/kg
effect on systemic infection by Staphylococcus aureus (Staphylococcus aureus [13]): only extremely weak effect
